The text below walks through data of PMC6956158, “In Vitro and In Vivo Assessment of Metabolic Drug Interaction Potential of Dutasteride with Ketoconazole” (Pharmaceutics, 2019).

The term AUC(0-inf) denotes the area under the concentration-time curve extrapolated to infinity. Lower therefore signals low exposure. The half-life is how long it takes for the measured level to halve. Read a high half-life as slow decline. As usually defined, the fraction unbound is free concentration divided by total concentration. A lower fraction unbound goes with little free substance.

Read-outs that look alike come from different tables or passages of the source.

Series [1] in a line: Blood-to-plasma concentration ratio (RB), blood distribution. It counts as in vitro ADME. Particulars: rat, fresh rat blood, 37 °C. Here is the method: (§1) To investigate the metabolic interaction potential between DUT and KET, the disappearance of DUT (5 μM) in RLM and HLM was determined under the absence and presence of KET at various concentrations ranging from 1 to 5000 nM. A microsomal reaction mixture was prepared as follows (total volume: 0.2 mL): 1 mM NADPH, 10 mM MgCl2, substrate (DUT), and inhibitor (KET), RLM or HLM (1 mg/mL), and 50 mM phosphate buffer. At 0 and 90 min after starting the metabolic reaction, a 50 μL aliquot of microsomal incubation mixture was sampled and immediately transferred into a clean 1.5 mL microcentrifuge tube containing 100 μL cold ACN with an internal standard (celecoxib at 400 ng/mL) to stop the metabolic reaction. After vortex mixing and centrifugation at 15,000× g for 10 min, a 100 μL aliquot of the supernatant was stored at −80 °C. The unbound fractions of DUT in rat plasma, RLM, human plasma, and HLM were measured using a rapid equilibrium dialysis (RED) device (Thermo Fisher Scientific, Inc., Waltham, MA, USA) as described in a previous study. […] The fraction unbound was calculated as the ratio of the drug concentrations in the “buffer” chamber to those in the “sample” chamber. The blood-to-plasma concentration ratio (RB) of DUT was determined as described previously. […] The concentrations of DUT in the plasma sample were determined by the validated HPLC analysis.

Series [2] is described as follows: In vivo pharmacokinetic study in rats, intravenous DUT without or with intravenous KET. Set-up: species or system rat. Particulars: for AUC(0-inf) / half-life / clearance / Vd: male, Sprague-Dawley, rat, iv, 2.5 mg/kg; for AUC(0-inf) / half-life: n = 4; for Vd: n = 4, read-out: Vss. From the text: The animal experiment protocols used in the present study were approved by the Pusan National University-Institutional Animal Care and Use Committee for scientific care and ethical procedures (Busan, Korea; approval date: 01/05/2018; approval number: PNU-2018-1848). Male Sprague–Dawley rats (8-week-old; approximately 250 g) were purchased from DBL Co., Ltd. (Incheon, Korea). The rats were acclimatized in a clean room of the Laboratory Animal Center of Pusan National University (Busan, Korea) for 1 week. Then, they were fasted for 12 h prior to the pharmacokinetic experiment and then anesthetized by intramuscular injection of Zoletil at a dose of 20 mg/kg. The femoral vein and artery of the rats were cannulated with a polyethylene tube (BD Medical; Franklin Lakes, NJ, USA). At approximately 4–6 h after the surgery for cannulation, an intravenous dose of DUT (2.5 mg/kg) simultaneously with or without intravenous KET (20 mg/kg) or an oral dose of DUT (5 mg/kg) simultaneously with or without intravenous KET (20 mg/kg) was administered to the rats. Drugs were dissolved in a vehicle consisting of dimethyl sulfoxide, ethanol, and polyethylene glycol 400 at a ratio of 10:5:85 (v/v/v). Blood (approximately 200 μL) was collected in heparin pre-treated microcentrifuge tubes via the femoral artery at 0, 1, 5, 15, 30, 60, 120, 180, 240, 360, 480, and 1200 min after the intravenous dose and at 0, 5, 15, 30, 60, 120, 150, 180, 240, 360, 480, and 1200 min after the oral dose. Following centrifugation of the blood samples at 3000× g at 4 °C for 10 min [19], 100 μL aliquots of plasma were stored at −80 °C.
The half maximal inhibitory concentration (IC50) of KET for the inhibition of the DUT metabolism was determined by the nonlinear regression analysis (GraphPad Prism ver. 5.01; GraphPad Software Inc., San Diego, CA, USA) based on the following Hill equation: y = Min + Max−Min/1 + (x/IC50)^-P where Max and Min are the initial and final y value, respectively, and the exponent P represents the Hill coefficient. Peak plasma concentration (Cmax) and time to reach Cmax (Tmax) were read directly from the observed data. Non-compartmental analysis was conducted to estimate pharmacokinetic parameters such as total area under plasma concentration versus time curve from time zero to time of last sampling (AUClast), total area under plasma concentration versus time curve from time zero to infinity (AUCinf), total plasma clearance (CL), volume of distribution at steady state (Vss), and terminal half-life (t1/2) using the NCA200 and 201 models of WinNonlin ver. 3.1 (Certara USA Inc., Princeton, NJ, USA).

Series [3] is described as follows: Unbound fraction by rapid equilibrium dialysis, HLM. The format is in vitro ADME, human. Here is the method:
as §1
A general note: In equilibrium dialysis only unbound substance equilibrates across the membrane.

The mark [4] stands for this setting: plasma, intravenous DUT 2.5 mg/kg with intravenous KET 20 mg/kg.
Where [5] appears, read: plasma, intravenous DUT 2.5 mg/kg, DUT alone.

Take `C[C@]12C=CC(=O)N[C@@H]1CC[C@@H]1[C@@H]2CC[C@]2(C)[C@@H](C(=O)Nc3cc(C(F)(F)F)ccc3C(F)(F)F)CC[C@@H]12` [DUT, Dutasteride]: the values for the blood plasma ratio at 60 min, 5 μM in series [1] (DUT 5 μM alone) and in series [1] (DUT 5 μM in the presence of KET 5 μM) were 0.712 ± 0.026 and 0.692 ± 0.036, respectively. For the same compound, the hepatic extraction ratio in series [2] (calculated as CLH/QH, QH 50–80 mL/min/kg) was 0.039–0.062. The total exposure AUC(0-inf) is 41800 ng·h/mL in series [2] (setting [4]) and 19100 ng·h/mL in series [2] (setting [5]). In addition, the half-life in series [2] (setting [4]) was determined as 51 ± 5.98 h; in series [2] (setting [5]) it was 26.8 ± 3.27 h. Moreover, the clearance was 1.02 ± 0.16 mL/min/kg in series [2] (plasma, intravenous DUT 2.5 mg/kg with intravenous KET 20 mg/kg, n = 4, read-out: CL); 2.19 ± 0.16 mL/min/kg in series [2] (plasma, intravenous DUT 2.5 mg/kg, DUT alone, n = 4, read-out: CL); 3.08 mL/min/kg in series [2] (whole blood, intravenous DUT 2.5 mg/kg, calculated as CL/RB, mean value, read-out: total blood clearance (CLB)). The Vd stood at 4.41 ± 0.373 L/kg in series [2] (setting [4]) and 4.9 ± 0.326 L/kg in series [2] (setting [5]). Besides, the “fraction of unbound DUT, presence versus absence of KET” value in series [3] (DUT and KET 5 μM, n = 5) is on record as “no significant differences”. For the same compound, in series [3] (human, human liver microsomes, DUT 5 μM, RED device), the fraction unbound at 5 μM amounted to 0.091.
